Our source for the pKa values is the pKa sets of Baltruschat and Czodrowski (2020).

In turn, `Nc1ccc([N+](=O)[O-])c(B(O)O)c1` returned a pKa (acidic group) of 10. The same measure, in the same setting: as for `O=C1COC=C([O-])C1=O`, the figure is 10.5; as for `O=C/C(O)=C\[O-]`, 13. Still for that read-out and setting: the figure for `Cc1cc(Cc2cc(O)ccc2C)c(O)c([N+](=O)[O-])c1` is 7.93; for `O=C(O)C1CCCCn2nnnc21` (stereo not given) it is 3.4. The compound `CCC(C)NCC(C)C` (stereo not given) displayed a pKa (basic group) of 10.8. On the same count and under the same terms, as for `c1ccc2c(CC3=NCCN3)cccc2c1`, the figure is 10.3. Where the note is “basic group”, `CN(C)CC(C)(C)CN` showed a pKa of 10.1.

`CCC(C)[C@H]([NH3+])C(=O)O` (stereo not given in full) showed a pKa (acidic group) of 2.26. In turn, `Cn1cnc(=O)c(-c2ccccc2)c1` gave a pKa (basic group) of 1.99. Compound `COc1cc(C=O)ccc1O` displayed a pKa (acidic group) of 7.38. `CCc1cc(C)nnc1C`: the pKa (basic group) stood at 4.73. Consider `CCCOc1ccccc1C(=O)O`, for which the pKa (acidic group) stood at 4.24. Still for that read-out and setting: as for `CC(C)c1ccc(Br)c(O)c(=O)c1`, the figure is 6.28. With `Clc1cccc(Nc2ccccc2)c1`, the pKa (basic group) was found to be 2.34. For `Cc1c(O)c(=O)n(-c2ccccc2)n1C`, where the note is “basic group”, the pKa is -0.22. In turn, `NC(=O)[C@H](CCC(=O)O)NC=O` returned a pKa (acidic group) of 4.3.

For the setting “basic group”, `Cc1nc(C)c(C)[nH+]c1C` showed a pKa of -2.73. `CC(C)(C)c1ccnc(C(C)(C)C)c1`: under “basic group”, the pKa turned out to be 6.7. `COc1cc(C(C)=O)ccc1O` came in with a pKa (acidic group) of 7.65. Where the note is “acidic group”, `CC1(C)[C@@H]2CC[C@](C(=O)O)(C2)[C@@H]1O` came in with a pKa of 4.83. As to `N[C@H]1CCCC[C@@H]1N`, under “basic group”, the pKa is 9.75.

For `C[NH2+]CCS`, under “acidic group”, the pKa was determined as 8.02.

Turning to `Nc1ccc2c(Cl)c3ccccc3nc2c1`, the pKa (basic group) stood at 6.74. Still for that read-out and setting: the figure for `Nc1cc2c(cc1Br)CCCC2` is 3.05. Where the note is “basic group”, `CCC(C)(C)NC(C)(C)CC` gave a pKa of 11.6.

Take `COc1nc2ccccc2nc1C`: the pKa (basic group) amounted to 1.38. `CC(O)(c1ccccc1)C(C(=O)O)c1ccc(-c2ccccc2)cc1` (stereo not given) had a pKa (acidic group) of 3.38. Take `O=S(=O)([O-])c1cc(O)cc2[nH]ncc12`: under “acidic group”, the pKa came to 8.85. In turn, `O=Cc1cccc(C=O)n1` returned a pKa (basic group) of 1.92.

In the case of `Cc1cccc(C(=O)O)c1I`, the pKa (acidic group) amounted to 2.92. Compound `CCOC(=O)c1c[nH+]c2cc([N+](=O)[O-])ccc2c1O` showed a pKa (acidic group) of 4.1. In turn, `O=C(O)c1ccccc1-c1nnn[nH]1` registered a pKa (acidic group) of 2.9.

Turning to `Fc1ccc(NC(=S)c2ccccc2)cc1`, the pKa (acidic group) came out at 10.8. `CCCCNC(O)=S` displayed a pKa (acidic group) of 0.67. Same read-out and setting: as for `CC[Si](C)(C)CC(=O)O`, the figure is 5.4; as for `O=C(O)c1ccc([N+](=O)[O-])cc1Cl`, 1.96. Turning to `CCCCCCCCCCCCCCC(=O)O`, for the setting “acidic group”, the pKa was found to be 5.01. `Nc1ccc2c(N)c3ccccc3nc2c1` registered a pKa (basic group) of 11.5.

As to `O=C(O)c1cc([N+](=O)[O-])ccc1F`, the pKa (acidic group) is 2.73. `Cc1cnc2c([S-])ncnc2n1` displayed a pKa (basic group) of 7.02.

`CCN(CC)CCCCNc1cc[nH+]c2ccccc12`: the pKa (basic group) was determined as 8.94. As for `Cc1ccc(C(=O)Oc2ccccc2)c(O)c1`, the pKa (acidic group) came out at 9.44.

Consider `Cc1cccc(O)c1O`, for which the pKa (acidic group) turned out to be 9.28. The pKa values of the last two compounds are within 0.2 log units of each other. The same measure, in the same setting: as for `O=C(O)CSc1ccc([N+](=O)[O-])cc1`, the figure is 3.2. `Cc1n[nH]c(C)c1Cl`: the pKa (basic group) is 2.23. Still for that read-out and setting: as for `C[C@@H]1C[NH2+][C@@H](C)CN1`, the figure is 5.29.

In turn, `N#Cc1nn[nH]c1C#N` showed a pKa (acidic group) of 1.47. Compound `CCCCCN` showed a pKa (basic group) of 10.7. In the case of `CCCCc1c(C)nc(NCC)nc1[O-]`, the pKa (basic group) came to 11. The same measure, in the same setting: as for `COc1ccc(OC)c2c1nc(C)n2C`, the figure is 6.12. In turn, `COc1ccc([Se]O)c([N+](=O)[O-])c1` had a pKa (acidic group) of 10.7.

For `CN(CC[NH+](C)C)c1ccnc2cccc([N+](=O)[O-])c12`, the pKa (basic group) came to 4.86. As for `C=CCCC(=O)O`, the pKa (acidic group) came to 4.68. Still for that read-out and setting: as for `O=C(O)c1cccc2cc3ccccc3cc12`, the figure is 3.7. On to `Nc1ccc2nc3ccccc3nc2c1`, for which the pKa (basic group) was 4.52. As for `Oc1cc[n+](OCc2ccccc2)cc1`, for the setting “acidic group”, the pKa worked out at 2.58.

Compound `CC1C(=O)OC(C(C)(C)C)C1=O` (stereo not given) gave a pKa (basic group) of 4.84.

As to `C[C@H](N)[C@H](C)N`, the pKa (basic group) came to 9.84. As to `c1ccc2cnncc2c1`, the pKa (basic group) came out at 3.47. In the case of `CCN(CC)c1nc(N)nc(N)n1`, the pKa (basic group) came out at 5.61. `COc1ccc(C(=O)c2cc[nH]n2)cc1` gave a pKa (acidic group) of 12.1. Where the note is “acidic group”, `O=C(O)[C@H]1C[C@@H]1c1ccccc1` displayed a pKa of 4.54. On the same count and under the same terms, the figure for `CC(C)(C)CC(=O)O` is 5.01. For `Cc1nc(N)c2cn[nH]c2n1`, the pKa by setting is: (acidic group) 11.3; (basic group) 5.41. In the case of `CCC[n+]1cccc2c(O)cccc21`, where the note is “acidic group”, the pKa was determined as 6.06.

`CC(C)CN(C)c1ccccc1` returned a pKa (basic group) of 5.2.

`CN(C)c1cccc2c(S(=O)(=O)NCC(=O)O)cccc12` displayed a pKa (acidic group) of 4.4. `CNCCCc1ccccc1`: the pKa (basic group) came out at 10.6. Still for that read-out and setting: the figure for `CN/C=N/c1cccc(-c2csc(N=C(N)N)n2)c1` is 8.29. Compound `CC1=C(O)C(O)=CC1` had a pKa (acidic group) of 9.11. Under “basic group”, `Nc1cccc2cc([N+](=O)[O-])ccc12` gave a pKa of 3.15. The compound `CCNc1nc(NCC)nc(NCC)n1` displayed a pKa (basic group) of 5.84. Compound `c1ccc(Cn2ccnc2)cc1` gave a pKa (basic group) of 6.66. Same read-out and setting: as for `c1ccc(-c2[nH]c3ccccc3[nH+]2)nc1`, the figure is -1.59.

`CN(C)/C=N/c1cccc(Cl)c1` yielded a pKa (basic group) of 7.97.

As for `Oc1ccc(/N=N/c2nccs2)c(O)c1`, the pKa (acidic group) was found to be 1.56. Still for that read-out and setting: the figure for `C[NH+](C)Cc1cc(Cl)ccc1O` is 8.02. Take `[NH3+]C(Cc1c[nH]c2ccccc12)C(=O)O` (stereo not given): the pKa (acidic group) was 2.48. For the compound `Cc1cc(-c2ccccc2)nn2c(CN3CCOCC3)cnc12`, for the setting “basic group”, the pKa was 6.01. The compound `O=C1C[C@H]2OCC=C3CN4CC[C@@]56c7ccccc7N1[C@@H]5[C@@H]2[C@@H]3C[C@@H]46` returned a pKa (basic group) of 8.18.

On to `Clc1ccc(C/C(=C\CN2CCCC2)c2ccccc2)cc1`, for which the pKa (basic group) was found to be 8.77. For the compound `CCOC(=O)N1CCN(C)CC1`, the pKa (basic group) turned out to be 7.31.

On to `C1CSCCN1`, for which the pKa (basic group) worked out at 9.05. Turning to `COCc1cccc(COC)n1`, the pKa (basic group) was found to be 3.43.

Take `Cc1nc(N(C)C)nc(OC(=O)N(C)C)c1C`: the pKa (basic group) worked out at 4.53. The same measure, in the same setting: as for `CC(C)SC(=N)c1ccccc1`, the figure is 8.04. Consider `CCN1CCC[C@@H]1CNC(=O)c1c([O-])c(Cl)cc(Cl)c1OC`, for which the pKa (basic group) was 9.12. The compound `Cc1cc(O)cc(O)c1C(=N)c1ccccc1` yielded a pKa (basic group) of 6.75. With `CC(C)(C)c1ccccn1`, the pKa (basic group) was 5.72. In the case of `Cc1cnc(NS(=O)(=O)c2ccc(N)cc2)nc1C`, where the note is “acidic group”, the pKa turned out to be 6. Compound `CCc1ccc(OC)c(C(=O)NC[C@H]2CCC[NH+]2CC)c1O` returned a pKa (acidic group) of 8.7. On the same count and under the same terms, as for `O=C(O)c1nsc2ccccc12`, the figure is 2.76; as for `O=C1NC(=O)[C@@H]2CCC[C@H]12`, 9.53. With `Cc1ccc(Sc2ccc([N+](=O)[O-])cc2C(=O)O)cc1`, the pKa (acidic group) stood at 2.84.

`O=C([O-])C[NH+](CC(=O)[O-])Cc1cc(Cl)cc(C[NH+](CC(=O)[O-])CC(=O)[O-])c1O` had a pKa (acidic group) of 6.27. Still for that read-out and setting: the figure for `Cc1cccc(C(C)C)c1O` is 10.8. With `O=[PH]([O-])C(NCc1ccncc1)c1ccccc1O` (stereo not given), the pKa amounted to 11.9 (acidic group) and 8.05 (basic group).

What is called pKa is the negative logarithm of the acid dissociation constant. Higher therefore signals a group that holds its proton tightly.
